From ChEMBL document CHEMBL5506010, “Butyrylcholinesterase-Activated Near-Infrared Fluorogenic Probe for In Vivo Theranostics of Alzheimer's Disease” (J Med Chem, 2024)
Calls of active or inactive are those of the source. No cut-off for these calls is given here.

Experiments:
[1] = Drug uptake in brain of 8 months old AD-mouse model assessed as increase in fluorescence at 100 uM, iv by fluorescence scanning analysis; format: ADME, organism-based; settings: in vivo
[2] = Permeability of compound incubated for 18 hrs by PAMPA-BBB based UV plate spectroscopic reader analysis; format: ADME; settings: read-out: permeability
Cholinesterase [3] = target: T1, Cholinesterase (Homo sapiens, UniProt P06276); experiment: Inhibition of human BChE using butyrylthiocholineiodide as substrate preincubated for 5 mins followed by substrate addition and measured immediately by Ellmans method
T1 sequence (P06276 whole entry): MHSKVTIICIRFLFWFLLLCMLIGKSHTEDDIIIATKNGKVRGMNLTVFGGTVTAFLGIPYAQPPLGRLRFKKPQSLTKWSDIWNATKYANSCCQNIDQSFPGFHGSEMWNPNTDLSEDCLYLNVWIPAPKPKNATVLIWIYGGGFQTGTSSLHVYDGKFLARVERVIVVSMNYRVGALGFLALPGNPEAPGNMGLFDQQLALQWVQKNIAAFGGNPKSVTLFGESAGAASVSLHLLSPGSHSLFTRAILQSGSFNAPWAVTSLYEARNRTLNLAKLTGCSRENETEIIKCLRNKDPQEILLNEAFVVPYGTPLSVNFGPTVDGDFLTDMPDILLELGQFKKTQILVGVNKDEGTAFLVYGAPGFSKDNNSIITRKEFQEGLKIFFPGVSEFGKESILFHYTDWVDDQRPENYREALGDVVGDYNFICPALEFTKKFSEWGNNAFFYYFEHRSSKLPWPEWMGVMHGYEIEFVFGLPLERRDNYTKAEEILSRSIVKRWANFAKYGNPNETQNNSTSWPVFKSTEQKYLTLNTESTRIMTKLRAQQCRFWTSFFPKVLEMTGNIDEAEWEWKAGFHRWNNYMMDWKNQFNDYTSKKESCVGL

Cholinesterase [4] = target: T1, Cholinesterase; experiment: Binding affinity to BChE (unknown origin) assessed as enzyme mediated compound hydrolysis measured after 1 min by HPLC analysis relative to control; parameters: scale not given: the % may be the effect or the level left
[5] = Drug accumulation in brain of APP/PS1 transgenic AD-mouse model at 100 uM, iv measured after 24 hrs […] by fluorescence imaging analysis; format: ADME, organism-based; settings: in vivo
[6] = Toxicity in APP/PS1 transgenic AD mouse model assessed as spleen damage administered intravenously once every 2 days for 10 times and measured on day 30 by H and E staining based analysis; format: tissue-based; settings: in vivo, iv, 720 h, time 30 day
SH-SY5Y [7] = experiment: Neuroprotective activity against amyloid-beta (1 to 42)-induced human SH-SY5Y cells assessed as increase in ACh level in culture medium at 10 to 20 uM incubated for 24 hrs by ELISA; format: functional, cell-based; settings: dose 10-20 µM
[8] = Drug uptake in brain of 6 weeks old AD-mouse model assessed as increase in fluorescence at 100 uM, iv by fluorescence scanning analysis; format: ADME, organism-based; settings: in vivo
PC-12 = experiment: Binding affinity to BChE in rat PC-12 cells assessed as increase in fluorescence intensity preincubated with S11-1014 for 24 hrs followed by compound addition and measured after 1 hrs by fluorescence based confocal laser scanning microscopic analysis; format: cell-based
[9] = Drug uptake in brain of 7-month old APP/[…] transgenic AD-mouse model assessed as increase in fluorescence at 100 uM, iv measured after 1 hrs by fluorescence imaging analysis; format: ADME, organism-based; settings: in vivo
Mus musculus [10] = experiment: Antialzheimer activity in APP/PS1 transgenic AD mouse model assessed as improvement in learning administered intravenously once every 2 days for 10 times followed by morris water maze training from day 21 to 25 and measured on day 26 by Morris water maze test; format: functional, organism-based; settings: route iv, time 26.0 day
[11] = Drug uptake in wildtype mouse brain assessed as increase in fluorescence at 100 uM, iv by fluorescence scanning analysis; format: ADME, organism-based; settings: in vivo
[12] = Neurotoxicity in mouse HT-22 cells assessed as reduction in cell viability at 50 uM; format: toxicity, cell-based; settings: ht-22, 50 µM
[13] = Drug accumulation in brain of APP/PS1 transgenic AD-mouse model at 100 uM, iv measured at 5 to 60 mins by fluorescence imaging analysis; format: ADME, organism-based; settings: in vivo, time 5-60 min
SH-SY5Y [14] = experiment: Neuroprotective activity against amyloid-beta (1 to 42)-induced human SH-SY5Y cells assessed as increase in ACh level in cell lysate at 10 to 20 uM incubated for 24 hrs by ELISA; format: functional, cell-based; settings: dose 10-20 µM
Cholinesterase [15] = target: T1, Cholinesterase; experiment: Binding affinity to BChE (unknown origin) in PBS assessed as cyan coloured appearance of compound by UV/vis absorption analysis
[16] = Stability of compound in male ICR mouse brain at 100 uM, iv measured after 24 hrs by fluorescence microplate reader; format: ADME, organism-based
Cholinesterase [17] = target: T1, Cholinesterase; experiment: Binding affinity to BChE (unknown origin) in PBS assessed as fold change in fluorescence intensity at 710 nm by fluorescence spectra analysis
HT-22 = experiment: Inhibition of H2O2-induced ROS release in mouse HT-22 cells assessed as increase in red fluorescence at 1 to 10 uM preincubated for 1 hrs followed by H2O2 addition and measured after 24 hrs by DCFH-DA based confocal laser scanning microscopic analysis; format: functional, cell-based; settings: dose 1-10 µM, time 25.0 hrs
Cholinesterase [18] = target: T1, Cholinesterase; experiment: Binding affinity to BChE (unknown origin) in PBS assessed as […] at 680 nm by UV/vis absorption analysis
[19] = Toxicity in APP/PS1 transgenic AD mouse model assessed as liver damage administered intravenously once every 2 days for 10 times and measured on day 30 by H and E staining based analysis; format: tissue-based; settings: in vivo, iv, 720 h, time 30 day
Cholinesterase [20] = target: T1, Cholinesterase; experiment: Binding affinity to BChE (unknown origin) in PBS assessed as red-shift in maximum absorption to 680 nm by UV/vis absorption analysis
Mus musculus [21] = experiment: Antialzheimer activity in APP/PS1 transgenic AD mouse model assessed as improvement in NC scores administered intravenously once every 2 days for 10 times and measured on day 27 by Nest construction test; format: functional, organism-based; settings: route iv, time 27.0 day
Acetylcholinesterase = Acetylcholinesterase (Homo sapiens, UniProt P22303); experiment: Inhibition of human AChE using acetylthiocholine iodide as substrate at 10 uM preincubated for 5 mins followed by substrate addition and measured immediately by Ellmans method relative to control
Sequence of Acetylcholinesterase (P22303 whole entry): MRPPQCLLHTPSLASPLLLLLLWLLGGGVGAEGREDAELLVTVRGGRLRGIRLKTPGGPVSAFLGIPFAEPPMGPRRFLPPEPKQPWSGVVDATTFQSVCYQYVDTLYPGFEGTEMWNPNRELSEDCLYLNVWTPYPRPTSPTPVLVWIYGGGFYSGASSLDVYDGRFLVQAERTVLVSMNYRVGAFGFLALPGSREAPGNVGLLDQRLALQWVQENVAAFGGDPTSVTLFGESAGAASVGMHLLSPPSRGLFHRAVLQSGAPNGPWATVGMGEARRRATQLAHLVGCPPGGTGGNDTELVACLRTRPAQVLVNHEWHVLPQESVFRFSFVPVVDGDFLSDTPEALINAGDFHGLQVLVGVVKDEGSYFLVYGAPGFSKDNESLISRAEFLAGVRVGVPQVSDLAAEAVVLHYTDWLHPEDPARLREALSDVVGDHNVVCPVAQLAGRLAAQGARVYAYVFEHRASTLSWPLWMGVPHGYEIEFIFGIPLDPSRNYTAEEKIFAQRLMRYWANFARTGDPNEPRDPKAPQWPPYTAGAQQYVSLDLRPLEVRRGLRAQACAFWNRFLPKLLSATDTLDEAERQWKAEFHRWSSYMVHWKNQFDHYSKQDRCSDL

Cholinesterase [22] = target: T1, Cholinesterase; experiment: Binding affinity to BChE in human LN-229 cells at 10 uM incubated for 1 hrs by fluorescence based confocal laser scanning microscopic analysis; format: cell-based
Cholinesterase [23] = target: T1, Cholinesterase; experiment: Binding affinity to BChE (unknown origin) in PBS assessed as maximum emission wavelength at 710 nm by fluorescence spectra analysis

SMILES: CCN(CC)Cc1ccccc1CNC(=O)c1cccc(NC(=O)c2cccc(C(=O)NCCn3cc(CCC[N+]4=C(/C=C/C5=C6Oc7cc(OC(=O)C8CC8)ccc7C=C6CCC5)C(C)(C)c5ccccc54)nn3)c2)c1.[I-]
- Drug uptake [1]: Active
- Papp at 18 h [2]: 155 nm/s
- IC50 (Cholinesterase [3]): 0.0297 µM
- Activity (Cholinesterase [4]): 50%
- Drug uptake [5]: Not Active
- Activity [6]: Non-Toxic
- Activity (SH-SY5Y [7]): Active
- Drug uptake [8]: Active
- Activity (PC-12): inactive
- Drug uptake [9]: Active
- Activity (Mus musculus [10]): Active
- Drug uptake [11]: Active
- Activity [12]: Non-Toxic
- Drug uptake [13]: Active
- Activity (SH-SY5Y [14]): Active
- Activity (Cholinesterase [15]): Active
- Stability [16]: Unstable
- fold change (FC) (Cholinesterase [17]): 24
- inhibition (HT-22): Active
- Activity (Cholinesterase [18]): Active
- Activity [19]: Non-Toxic
- Activity (Cholinesterase [20]): Active
- Activity (Mus musculus [21]): Active
- inhibition (Acetylcholinesterase): 12.3%
- Activity (Cholinesterase [22]): Active
- Activity (Cholinesterase [23]): Active
